# Non-standard residues stand in square brackets, D forms with d. Residues, ends and D or L forms follow the SMILES beside them. ξ: configuration not given here. *: point of attachment. Palmitoyl = CCCCCCCCCCCCCCCC(=O)*; ξR = N=C(N)NCCCC(N)C(=O)O
# T1: Gi-coupled receptor APJ (HEK cells stably expressing the APJ receptor) (Homo sapiens, UniProt P35414)
# T1 construct: expressed in transfected cells; host or cells: HEK cells stably expressing APJ
# T1 sequence (P35414 1-380): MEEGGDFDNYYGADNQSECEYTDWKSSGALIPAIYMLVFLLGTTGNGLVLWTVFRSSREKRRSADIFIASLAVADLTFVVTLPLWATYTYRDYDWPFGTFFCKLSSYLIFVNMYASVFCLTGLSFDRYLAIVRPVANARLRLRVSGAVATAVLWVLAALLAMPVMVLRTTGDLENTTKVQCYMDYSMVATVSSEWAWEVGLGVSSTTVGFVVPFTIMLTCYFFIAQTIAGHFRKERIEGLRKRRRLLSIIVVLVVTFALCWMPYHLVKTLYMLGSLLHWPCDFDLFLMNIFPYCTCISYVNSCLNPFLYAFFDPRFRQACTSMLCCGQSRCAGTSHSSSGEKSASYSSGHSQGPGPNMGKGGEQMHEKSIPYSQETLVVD
# Target: APJ receptor (Homo sapiens (Human), UniProt P35414)
# Assay: cell-based or functional assay
# Settings: not given
row,Molecule,"EC50 value (nM), HTRF cAMP assay [nM]"
1,Palmitoyl-FRSSREKRRSADIFI-NH2 (SMILES CCCCCCCCCCCCCCCC(=O)N[C@@H](Cc1ccccc1)C(=O)N[C@@H](CCCNC(=N)N)C(=O)N[C@@H](CO)C(=O)N[C@@H](CO)C(=O)N[C@@H](CCCNC(=N)N)C(=O)N[C@@H](CCC(=O)O)C(=O)N[C@@H](CCCCN)C(=O)N[C@@H](CCCNC(=N)N)C(=O)N[C@@H](CCCNC(=N)N)C(=O)N[C@@H](CO)C(=O)N[C@@H](C)C(=O)N[C@@H](CC(=O)O)C(=O)N[C@H](C(=O)N[C@@H](Cc1ccccc1)C(=O)N[C@H](C(N)=O)[C@@H](C)CC)[C@@H](C)CC) [Compound 11 Pal-FRSSREKRRSADIFI-Amide],≤ 500
2,Palmitoyl-QTIAGHFRKERIEGLRKRRRLLA-NH2 (SMILES CCCCCCCCCCCCCCCC(=O)N[C@@H](CCC(N)=O)C(=O)N[C@H](C(=O)N[C@H](C(=O)N[C@@H](C)C(=O)NCC(=O)N[C@@H](Cc1c[nH]cn1)C(=O)N[C@@H](Cc1ccccc1)C(=O)N[C@@H](CCCNC(=N)N)C(=O)N[C@@H](CCCCN)C(=O)N[C@@H](CCC(=O)O)C(=O)N[C@@H](CCCNC(=N)N)C(=O)N[C@H](C(=O)N[C@@H](CCC(=O)O)C(=O)NCC(=O)N[C@@H](CC(C)C)C(=O)N[C@@H](CCCNC(=N)N)C(=O)N[C@@H](CCCCN)C(=O)N[C@@H](CCCNC(=N)N)C(=O)N[C@@H](CCCNC(=N)N)C(=O)N[C@@H](CCCNC(=N)N)C(=O)N[C@@H](CC(C)C)C(=O)N[C@@H](CC(C)C)C(=O)N[C@@H](C)C(N)=O)[C@@H](C)CC)[C@@H](C)CC)[C@@H](C)O) [Compound 96 Pal-QTIAGHFRKERIEGLRKRRRLLA-Amide],≤ 500
3,Palmitoyl-TVFRSSREKRRSADIFI-NH2 (SMILES CCCCCCCCCCCCCCCC(=O)N[C@H](C(=O)N[C@H](C(=O)N[C@@H](Cc1ccccc1)C(=O)N[C@@H](CCCNC(=N)N)C(=O)N[C@@H](CO)C(=O)N[C@@H](CO)C(=O)N[C@@H](CCCNC(=N)N)C(=O)N[C@@H](CCC(=O)O)C(=O)N[C@@H](CCCCN)C(=O)N[C@@H](CCCNC(=N)N)C(=O)N[C@@H](CCCNC(=N)N)C(=O)N[C@@H](CO)C(=O)N[C@@H](C)C(=O)N[C@@H](CC(=O)O)C(=O)N[C@H](C(=O)N[C@@H](Cc1ccccc1)C(=O)N[C@H](C(N)=O)[C@@H](C)CC)[C@@H](C)CC)C(C)C)[C@@H](C)O) [Compound 12 Pal-TVFRSSREKRRSADIFI-Amide],≤ 500

# Target: T1, Gi-coupled receptor APJ (HEK cells stably expressing the APJ receptor)
# Assay: HTRF cAMP assay: inhibition of NKH477 stimulated increase in cAMP
# Format: cell-based
# Settings: read-out: EC50 value (nM), SEM
# From the text: HTRF (homogeneous time resolved fluorescence) is a technology developed by Cisbio Bioassays based on TR-FRET (time-resolved fluorescence resonance energy transfer). Cisbio Bioassays has developed a wide selection of HTRF-based assays compatible with whole cells, thereby enabling functional assays to run under more physiological conditions. The IP-One assays are competitive immunoassays using cryptate-labeled anti-IPI monoclonal antibody and d2-labeled IP1. IP1 is a relatively stable downstream metabolite of IP3, and accumulates in cells following Gq receptor activation.
# cAMP kits based on a competitive immunoassay using cryptate-labeled anti-cAMP antibody and d2-labeled cAMP were used to assay the effects of APJ compounds of the present invention. This assay measures the increase in intracellular cAMP upon Gs-coupled receptor activation as well as decrease in forskolin (or a more soluble version of forskolin—NKH477) stimulated increase in cAMP upon Gi-coupled receptor activation.
row,Molecule,EC50 [nM]
1,CCCCCCCCCCCCCCCC(=O)N[C@H](C(=O)N[C@H](C(=O)N[C@@H](Cc1ccccc1)C(=O)N[C@@H](CCCNC(=N)N)C(=O)N[C@@H](CO)C(=O)N[C@@H](CO)C(=O)N[C@@H](CCCNC(=N)N)C(=O)N[C@@H](CCC(=O)O)C(=O)N[C@@H](CCCCN)C(=O)N[C@@H](CCCNC(=N)N)C(=O)N[C@@H](CCCNC(=N)N)C(=O)N[C@@H](CO)C(=O)N[C@@H](C)C(=O)N[C@@H](CC(=O)O)C(=O)N[C@H](C(=O)N[C@@H](Cc1ccccc1)C(=O)N[C@H](C(N)=O)[C@@H](C)CC)[C@@H](C)CC)C(C)C)[C@@H](C)O [Compound 12] (Palmitoyl-TVFRSSREKRRSADIFI-NH2),1 to 500
2,CCCCCCCCCCCCCCCC(=O)N[C@@H](CCCNC(=N)N)C(=O)N1CCC[C@H]1C(=O)N[C@H](C(=O)N[C@@H](C)C(=O)N[C@@H](CC(N)=O)C(=O)N[C@@H](C)C(=O)N[C@@H](CCCNC(=N)N)C(=O)N[C@@H](CC(C)C)C(=O)N[C@@H](CCCNC(=N)N)C(=O)N[C@@H](CC(C)C)C(=O)N[C@@H](CCCNC(=N)N)C(=O)N[C@H](C(=O)N[C@@H](CO)C(=O)NCC(N)=O)C(C)C)C(C)C [Compound 75] (Palmitoyl-RPVANARLRLRVSG-NH2),> 10000
3,CCCCCCCCCCCCCCCC(=O)N[C@H](C(=O)N[C@@H](CCCNC(=N)N)C(=O)N1CCC[C@H]1C(=O)N[C@H](C(=O)N[C@@H](C)C(=O)N[C@@H](CC(N)=O)C(=O)N[C@@H](C)C(=O)N[C@@H](CCCNC(=N)N)C(=O)N[C@@H](CC(C)C)C(=O)N[C@@H](CCCNC(=N)N)C(=O)N[C@@H](CC(C)C)C(=O)N[C@@H](CCCNC(=N)N)C(=O)N[C@H](C(=O)N[C@@H](CO)C(=O)NCC(N)=O)C(C)C)C(C)C)C(C)C [Compound 76] (Palmitoyl-VRPVANARLRLRVSG-NH2),> 10000
4,CCCCCCCCCCCCCCCC(=O)N[C@H](C(=O)N[C@H](C(=O)N[C@@H](CCCNC(=N)N)C(=O)N1CCC[C@H]1C(=O)N[C@H](C(=O)N[C@@H](C)C(=O)N[C@@H](CC(N)=O)C(=O)N[C@@H](C)C(=O)N[C@@H](CCCNC(=N)N)C(=O)N[C@@H](CC(C)C)C(=O)N[C@@H](CCCNC(=N)N)C(=O)N[C@@H](CC(C)C)C(=O)N[C@@H](CCCNC(=N)N)C(=O)N[C@H](C(=O)N[C@@H](CO)C(=O)NCC(N)=O)C(C)C)C(C)C)C(C)C)[C@@H](C)CC [Compound 77] (Palmitoyl-IVRPVANARLRLRVSG-NH2),> 10000
5,CCCCCCCCCCCCCCCC(=O)N[C@@H](C)C(=O)N[C@H](C(=O)N[C@H](C(=O)N[C@@H](CCCNC(=N)N)C(=O)N1CCC[C@H]1C(=O)N[C@H](C(=O)N[C@@H](C)C(=O)N[C@@H](CC(N)=O)C(=O)N[C@@H](C)C(=O)N[C@@H](CCCNC(=N)N)C(=O)N[C@@H](CC(C)C)C(=O)N[C@@H](CCCNC(=N)N)C(=O)N[C@@H](CC(C)C)C(=O)N[C@@H](CCCNC(=N)N)C(=O)N[C@H](C(=O)N[C@@H](CO)C(=O)NCC(N)=O)C(C)C)C(C)C)C(C)C)[C@@H](C)CC [Compound 78] (Palmitoyl-AIVRPVANARLRLRVSG-NH2),> 10000
6,CCCCCCCCCCCCCCCC(=O)N[C@H](C(=O)N[C@@H](CCCNC(=N)N)C(=O)N1CCC[C@H]1C(=O)N[C@H](C(=O)N[C@@H](C)C(=O)N[C@@H](CC(N)=O)C(=O)N[C@@H](C)C(=O)N[C@@H](CCCNC(=N)N)C(=O)N[C@@H](CC(C)C)C(=O)NC(CCCNC(=N)N)C(N)=O)C(C)C)C(C)C (stereo partly shown) [Compound 80] (Palmitoyl-VRPVANARL[ξR]-NH2),> 10000
7,CCCCCCCCCCCCCCCC(=O)N[C@H](C(=O)N[C@@H](CCCNC(=N)N)C(=O)N1CCC[C@H]1C(=O)N[C@H](C(=O)N[C@@H](C)C(=O)N[C@@H](CC(N)=O)C(=O)N[C@@H](C)C(=O)N[C@@H](CCCNC(=N)N)C(=O)N[C@@H](CC(C)C)C(N)=O)C(C)C)C(C)C [Compound 81] (Palmitoyl-VRPVANARL-NH2),> 10000
8,CCCCCCCCCCCCCCCC(=O)N[C@H](C(=O)N[C@@H](CCCNC(=N)N)C(=O)N1CCC[C@H]1C(=O)N[C@H](C(=O)N[C@@H](C)C(=O)N[C@@H](CC(N)=O)C(=O)N[C@@H](C)C(=O)N[C@@H](CCCNC(=N)N)C(=O)N[C@@H](CC(C)C)C(=O)N[C@@H](CCCNC(=N)N)C(=O)N[C@@H](CC(C)C)C(=O)N[C@@H](CCCNC(=N)N)C(N)=O)C(C)C)C(C)C [Compound 83] (Palmitoyl-VRPVANARLRLR-NH2),> 10000
9,CCCCCCCCCCCCCCCC(=O)N[C@H](C(=O)N[C@@H](CCCNC(=N)N)C(=O)N1CCC[C@H]1C(=O)N[C@H](C(=O)N[C@@H](C)C(=O)N[C@@H](CC(N)=O)C(=O)N[C@@H](C)C(=O)N[C@@H](CCCNC(=N)N)C(=O)N[C@@H](CC(C)C)C(=O)NC(CCCNC(=N)N)C(=O)N[C@@H](CC(C)C)C(N)=O)C(C)C)C(C)C (stereo partly drawn) [Compound 84] (Palmitoyl-VRPVANARL[ξR]L-NH2),> 10000
10,CCCCCCCCCCCCCCCC(=O)N[C@H](C(=O)N[C@@H](CCCNC(=N)N)C(=O)N1CCC[C@H]1C(=O)N[C@H](C(=O)N[C@@H](C)C(=O)N[C@@H](CC(N)=O)C(=O)N[C@@H](C)C(=O)N[C@@H](CCCNC(=N)N)C(=O)N[C@@H](CC(C)C)C(=O)N[C@@H](CCCNC(=N)N)C(=O)N[C@@H](CC(C)C)C(=O)N[C@@H](CCCNC(=N)N)C(=O)N[C@H](C(N)=O)C(C)C)C(C)C)C(C)C [Compound 85] (Palmitoyl-VRPVANARLRLRV-NH2),> 10000
11,CCCCCCCCCCCCCCCC(=O)N[C@H](C(=O)N[C@@H](CCCNC(=N)N)C(=O)N1CCC[C@H]1C(=O)N[C@H](C(=O)N[C@@H](C)C(=O)N[C@@H](CC(N)=O)C(=O)N[C@@H](C)C(=O)N[C@@H](CCCNC(=N)N)C(=O)N[C@@H](CC(C)C)C(=O)N[C@@H](CCCNC(=N)N)C(=O)N[C@@H](CC(C)C)C(=O)N[C@@H](CCCNC(=N)N)C(=O)N[C@H](C(=O)N[C@@H](CO)C(N)=O)C(C)C)C(C)C)C(C)C [Compound 86] (Palmitoyl-VRPVANARLRLRVS-NH2),> 10000

# Test system: mouse heart function
# Assay: Langendorff heart preparation, developed pressure
# Format: ex vivo
# Settings: isolated perfused mouse heart, 15 minutes
# Method: A pressure-sensing balloon catheter was inserted in the LV cavity to record changes in the developed pressure. Heart function was assessed by measuring standard parameters such as heart rate, mean peak systolic pressure, mean end diastolic pressure, developed pressure, dP/dt max, and dP/dt min.
row,Molecule,"effect on mouse heart function (developed pressure, inotropic effect)"
1,CCCCCCCCCCCCCCCC(=O)N[C@H](C(=O)N[C@H](C(=O)N[C@@H](Cc1ccccc1)C(=O)N[C@@H](CCCNC(=N)N)C(=O)N[C@@H](CO)C(=O)N[C@@H](CO)C(=O)N[C@@H](CCCNC(=N)N)C(=O)N[C@@H](CCC(=O)O)C(=O)N[C@@H](CCCCN)C(=O)N[C@@H](CCCNC(=N)N)C(=O)N[C@@H](CCCNC(=N)N)C(=O)N[C@@H](CO)C(=O)N[C@@H](C)C(=O)N[C@@H](CC(=O)O)C(=O)N[C@H](C(=O)N[C@@H](Cc1ccccc1)C(=O)N[C@H](C(N)=O)[C@@H](C)CC)[C@@H](C)CC)C(C)C)[C@@H](C)O [Compound 12] (Palmitoyl-TVFRSSREKRRSADIFI-NH2),demonstrates inotropic activity
2,apelin-13 [reference compound],increase in developed pressure

# Reference: US20120028888A1, “APJ RECEPTOR COMPOUNDS” (priority 2008, published 2012)
